Measured values: patent US11040052B2, “Methods and pharmaceutical compositions for modulating autophagy in a subject in need thereof” (INSERM (INSTITUT NATIONAL DE LA SANTE ET DE LA RECHERCHE …, priority 2013, dated 2021)
“Also recorded” adds a separate entry of the source.

Assays:
[1] = tested on: cytoplasts of U2OS cells stably expressing GFP-LC3; experiment: Autophagic flux in cytoplasts (enucleated GFP-LC3 cells); assay type: cell-based, human; conditions: presence of BafA1, compared with nucleated control cells
Procedure: U2OS cells stably expressing GFP-LC3 were trypsinized and incubated in 3 ml of complete medium supplemented with […] cytochalasin B for 45 min at 37° C. This cell suspension was layered onto a discontinuous Ficoll density gradient (3 mL of 55%, 1 mL of 90%, and 3 mL of 100% Ficoll-Paques; GE Healthcare) in complete medium containing […] cytochalasin B. Gradients were prepared in ultracentrifuge tubes and pre-equilibrated at 37° C. in a CO2 incubator overnight. Gradients containing cell suspensions were centrifugated in a prewarmed rotor (SW41; Beck-man Coulter) at 30,000 g for 30 min at 32° C. The cytoplast-enriched fraction was collected from the interface between 55 and 90% Ficoll layers, washed in complete medium, and incubated for 4 h at 37° C. before treatments.

[2] = tested on: U2OS cells stably expressing GFP-LC3; experiment: Autophagy in cultured cells: GFP-LC3 puncta formation and LC3 lipidation with or without bafilomycin A1; assay type: cell-based, human; conditions: for autophagic flux (GFP-LC3 puncta formation, LC3 lipidation): cells kept in rich medium, presence and absence of BafA1; for abolition of the effects of AcCoA-replenishing agents on starvation-induced protein deacetylation and autophagy: starved cells plus DCA, DMKG or KIC; for starvation-induced autophagy (GFP-LC3 puncta, LC3 lipidation, autophagic flux): nutrient-depleted (starved) cells in vitro
Procedure: U2OS, HeLa or H4 cells stably expressing GFP-LC3 were seeded in 96-well imaging plates (BD Falcon, Sparks, USA) 24 h before stimulation. Cells were treated with the indicated agents for 4 h. […] Images were analyzed for the presence of GFP-LC3 puncta in the cytoplasm by means of the BD Attovision software (BD Imaging Systems). Cell surfaces were segmented and divided into cytoplasmic and nuclear regions according to manufacturer standard proceedings. RB 2×2 and Marr-Hildreth algorithms were used to recognize cytoplasmic GFP-LC3 positive dots. Statistical analyses were implemented on the R software (http://www.r-project.org/). For quantitative analyses of protein acetylation, cell surfaces were segmented into cytoplasm and nuclei regions, and staining intensity of each individual cell was measured for statistical analysis.
Membranes were then sliced in different parts according to the molecular weight of the protein of interest to allow simultaneous detection of different antigens within the same experiment. Unspecific binding sites were saturated by incubating membranes for 1 h in 0.05% Tween 20 (v:v in TBS) supplemented with 5% non-fat powdered milk (w:v in TBS), followed by the overnight incubation with primary antibodies specific for acetylated-lysine, LC3, phospho-AMPK (Thr172), AMPK, phospho-ribosomal protein S6 kinase (Thr421/Ser424), ribosomal protein S6 kinase, or STQM/p62 (Santa Cruz Biotechnology). Development was performed with appropriate horseradish peroxidase (HRP)-labeled secondary antibodies (Southern Biotech, Birmingham, USA) plus the SuperSignal West Pico chemoluminescent substrate (Thermo Scientific-Pierce). An anti-glyceraldehyde-3-phosphate dehydrogenase antibody (Chemicon International, Temecula, USA) was used to control equal loading of lanes.
For immunoblotting, protein extracts obtained by cellular lysis via RIPA buffer were run on 4-12% Bis-Tris acrylamide (Invitrogen) and electrotransferred to […] PVDF membranes (Biorad, USA). Unspecific binding sites were saturated by incubating membranes for 1 h in 0.05% Tween 20 (v:v in TBS) supplemented with 5% non-fat powdered milk (w:v in TBS), followed by an overnight incubation with primary antibodies specific for, LC3, phospho-AMPK (Thr172), AMPK, phosphor-ACC (Ser79), ACC, phospho-ribosomal protein S6 kinase (Thr421/Ser424), ribosomal protein S6 kinase, or SQSTM/p62 (Abnova). Membranes were opportunely cut in order to allow simultaneous detection of different molecular weight proteins. Development was performed with horseradish peroxidase (HRP)-labeled secondary antibodies (Southern Biotech, Birmingham, USA) plus the SuperSignal West Pico chemo luminescent substrate (Thermo Scientific-Pierce). An anti-glyceraldehyde-3-phosphate dehydrogenase antibody (Abcam) and anti-Actin antibody (Abcam) were used to ensure equal loading of lanes. Quantification was performed by densitometry by means of Image J software.
U2OS and H4 cells stably expressing GFP-LC3 were seeded in 96-well or 384-well imaging plates (BD Falcon, Sparks, USA). 24 h before stimulation, ells were treated with the indicated agents for 6 hours in absence of lysososomal ATPase inhibitors and for 3 hours in presence of Bafilomycin A1. […] Images were analyzed for the detection of GFP-LC3 puncta in the cytoplasm by means of the BD Attovision software (BD Imaging Systems. Cellular regions of interest, cytoplasm and nucleus, were defined and segmented according to standard proceedings. RB 2×2 and Marr-Hildreth algorithms were employed to allow the detection of GFP LC3 puncta. Statistical analyses were conducted using the R and Prism softwares (http://www.r-project.org/). For quantitative analyses of protein acetylation, cell surfaces were segmented intocytoplasmic and nucleic regions, and staining intensity of each individual cell was measured for statistical analysis.

cellular ATP levels = experiment: Cellular ATP levels; assay type: cell-based
EP300 = experiment: Acetylation of EP300 K1499 in starved cells; assay type: cell-based; conditions: nutrient-free conditions
[3] = tested on: turnover of long-lived proteins; experiment: Turnover of long-lived proteins; assay type: cell-based, human; conditions: for starvation-induced turnover of long-lived proteins: starved cells

Row | SMILES | autophagic flux in cytoplasts [1] | autophagic flux (GFP-LC3 puncta formation, LC3 lipidation) [2] | abolition of the effects of AcCoA-replenishing agents on starvation-induced protein deacetylation and autophagy [2] | cellular ATP levels in starved cells (cellular ATP levels) | starvation-induced deacetylation of the K1499 residue in EP300 (EP300) | starvation-induced autophagy (GFP-LC3 puncta, LC3 lipidation, autophagic flux) [2] | also measured
1 | O=C(O)c1cccc(C(=O)O)c1C(=O)O [BTC, 1,2,3-benzenetricarboxylate] | stimulated autophagy in cytoplasts as efficiently as in nucleated control cells; also recorded: stimulated autophagic flux in cytoplasts as efficiently as in nucleated control cells | increased autophagic flux; also recorded: induced the triad | cancelled the inhibitory effects; also recorded: abolished both the protein hyperacetylation and autophagy suppression |  |  |  | 
2 | COC(=O)CCC(=O)C(=O)OC [DMKG, dimethyl-α-ketoglutarate] |  |  |  | induced a decrease in cellular ATP | could be avoided | abolished starvation-induced autophagy; also recorded: low autophagy | 
3 | O=C(O)CC(O)(C(=O)O)C(O)C(=O)O (stereo not drawn) [HC, hydroxycitrate] | stimulated autophagy in cytoplasts as efficiently as in nucleated control cells; also recorded: stimulated autophagic flux in cytoplasts as efficiently as in nucleated control cells | increased autophagic flux; also recorded: induce autophagic flux; also recorded: strongly stimulated autophagy both in vitro and in vivo; also recorded: stimulated autophagic flux in cultured cancer cells | cancelled the inhibitory effects; also recorded: abolished both the protein hyperacetylation and autophagy suppression |  |  |  | 
4 | CC(C)CC(=O)C(=O)O [KIC, ketoisocaproic acid] |  |  |  | induced a decrease in cellular ATP | could be avoided | inhibition of starvation induced autophagy; also recorded: inhibited the starvation-induced increase in autophagic flux; also recorded: more efficient than leucine in suppressing autophagy | starvation-induced turnover of long-lived proteins [3]: inhibited the starvation-induced increase in autophagic flux and turnover of long-lived proteins
5 | O=C(O)CCCCC1CCSS1 (stereo not drawn) [LA, lipoic acid] |  |  |  | induced a decrease in cellular ATP | could be avoided | abolished starvation-induced autophagy; also recorded: blunted starvation-induced mTORC1 inhibition, AMPK activation and autophagy flux | starvation-induced turnover of long-lived proteins [3]: blunted
6 | N#CC(=Cc1cn(-c2ccccc2)c2ccccc12)C(=O)O [UK5099, 2-Cyano-3-(1-phenyl-1H-indol-3-yl)-2-propenoic acid] | stimulated autophagy in cytoplasts as efficiently as in nucleated control cells; also recorded: stimulated autophagic flux in cytoplasts as efficiently as in nucleated control cells | increased autophagic flux; also recorded: induction of GFP-LC3 puncta and lipidation of endogenous LC3-I to LC3-II; also recorded: induction of GFP-LC3 puncta, and lipidation of endogenous LC3-I to LC3-II |  |  |  |  | cellular ATP levels (cellular ATP levels; cells in rich medium): without reducing ATP; autophagy-dependent turnover of long-lived proteins ([3]; cells in rich medium): increased the autophagy-dependent turnover of long-lived proteins
7 | CC1=NN(c2ccc(C(=O)O)cc2)C(=O)/C1=C\c1ccc(-c2cc(C)c(C)cc2[N+](=O)[O-])o1 [c646] |  | induced autophagy both in vitro, in cultured cells, and in vivo, in mice | precluded the inhibitory effect of AcCoA-replenishing agents on starvation-induced autophagy |  |  |  | 
8 | CC(C)C[C@H](N)C(=O)O [leucine] |  |  |  |  |  | suppression of autophagy | 
